# Data: publication PMC10447267, “Assessment of the potential of the MET inhibitor tepotinib to affect the pharmacokinetics of CYP3A4 and P-gp substrates” (Investigational New Drugs, 2023)
# Like-named read-outs stand apart in the source and are kept apart here.
# Assays:
# [1] = molecular target: T1, CYP2B6 (Homo sapiens, UniProt P20813); test: CYP2B6 inhibition in pooled human liver microsomes; format: in vitro ADME; settings: Efavirenz 8-hydroxylation; for inhibition at 49.5 µM: both sexes, human, pooled human liver microsomes, probe efavirenz
# T1 construct: pooled mixed-gender human liver microsomes; from tissue; host or cells: pooled mixed-gender human liver microsomes
# T1 sequence (P20813 1-491): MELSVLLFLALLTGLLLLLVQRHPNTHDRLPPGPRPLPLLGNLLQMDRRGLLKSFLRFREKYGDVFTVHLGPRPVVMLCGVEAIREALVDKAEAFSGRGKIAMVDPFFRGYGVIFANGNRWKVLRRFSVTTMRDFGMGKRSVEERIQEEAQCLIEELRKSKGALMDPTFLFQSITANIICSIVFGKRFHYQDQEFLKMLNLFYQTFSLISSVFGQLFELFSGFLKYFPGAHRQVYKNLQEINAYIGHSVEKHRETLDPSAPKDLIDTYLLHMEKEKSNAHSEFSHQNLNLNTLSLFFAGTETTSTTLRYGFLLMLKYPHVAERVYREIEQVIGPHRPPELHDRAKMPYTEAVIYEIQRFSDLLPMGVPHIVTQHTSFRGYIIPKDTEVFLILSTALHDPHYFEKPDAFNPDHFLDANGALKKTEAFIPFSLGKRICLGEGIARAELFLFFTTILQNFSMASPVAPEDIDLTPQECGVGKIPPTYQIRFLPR
# Description: (§1) The potential of tepotinib and MSC2571109A to inhibit CYP450 enzymes CYP1A2, 2A6, 2B6, 2C8, 2C9, 2C19, 2D6, 2E1, and 3A4/5 in vitro was evaluated using CYP-catalyzed reactions in pooled mixed-gender human liver microsomes using specific substrates and liquid chromatography/tandem mass spectrometry (LC–MS/MS) readouts. […] Testosterone 6β-hydroxylation was assessed in the MSC2571109A study. Assessments of mechanism-based inhibition of the above listed CYP450 enzymes were conducted after pre-incubation of the microsomes with tepotinib or MSC2571109A. A brief summary of the incubation methods, including details of substrates used for the other CYP enzymes (which are not pertinent to this article) are presented in Online Resource 1. The LC–MS/MS-based methods used were consistent with those previously described in the literature.
# [2] = tested on: CYP3A4/5; format: in vitro ADME, human
# Description: In vitro studies in primary human hepatocyte cultures were conducted to assess the potential of tepotinib to induce human CYP1A1/2, 2B6 and 3A4/5 activity, the latter based on testosterone 6β-hydroxylation reactions (Online Resource 2). […] The studies included positive (rifampin) and vehicle (DMSO) controls. A negative control (flumazenil) was also included in the mRNA studies. The study designs, test systems and selection of prototypical inducers used in these studies were consistent with PhRMA, FDA and EMA guidelines.
# [3] = molecular target: T2, CYP2A6 (Homo sapiens, UniProt P11509); test: CYP2A6 inhibition in pooled human liver microsomes; format: in vitro ADME; settings: Coumarin 7-hydroxylation; for inhibition at 49.5 µM: both sexes, human, pooled human liver microsomes, probe coumarin
# T2 construct: pooled mixed-gender human liver microsomes; from tissue; host or cells: pooled mixed-gender human liver microsomes
# T2 sequence (P11509 1-494): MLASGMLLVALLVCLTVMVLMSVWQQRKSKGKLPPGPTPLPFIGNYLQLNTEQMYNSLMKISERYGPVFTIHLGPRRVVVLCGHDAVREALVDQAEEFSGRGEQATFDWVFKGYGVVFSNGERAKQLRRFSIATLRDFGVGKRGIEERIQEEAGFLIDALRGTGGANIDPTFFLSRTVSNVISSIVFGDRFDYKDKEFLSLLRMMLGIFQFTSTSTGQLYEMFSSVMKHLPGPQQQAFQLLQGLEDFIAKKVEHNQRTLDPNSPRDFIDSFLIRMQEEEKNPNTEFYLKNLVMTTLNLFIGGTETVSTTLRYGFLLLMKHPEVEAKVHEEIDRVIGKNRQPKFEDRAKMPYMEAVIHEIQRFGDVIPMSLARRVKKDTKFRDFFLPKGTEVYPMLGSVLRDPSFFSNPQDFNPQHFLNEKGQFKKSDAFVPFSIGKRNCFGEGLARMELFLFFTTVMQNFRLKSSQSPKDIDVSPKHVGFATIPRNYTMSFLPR
# Description: as §1
# [4] = molecular target: T3, CYP2C9 (Homo sapiens, UniProt P11712); test: CYP2C9 inhibition in pooled human liver microsomes; format: in vitro ADME; settings: for inhibition at 49.5 µM: both sexes, human, pooled human liver microsomes, probe diclofenac
# T3 construct: pooled mixed-gender human liver microsomes; from tissue; host or cells: pooled mixed-gender human liver microsomes
# Description: as §1
# [5] = molecular target: T4, CYP1A2 (Homo sapiens, UniProt P05177); test: CYP1A2 inhibition in pooled human liver microsomes; format: in vitro ADME; settings: for inhibition at 49.5 µM: both sexes, human, microsomes
# T4 construct: pooled mixed-gender human liver microsomes; from tissue; host or cells: pooled mixed-gender human liver microsomes
# T4 sequence (P05177 1-516): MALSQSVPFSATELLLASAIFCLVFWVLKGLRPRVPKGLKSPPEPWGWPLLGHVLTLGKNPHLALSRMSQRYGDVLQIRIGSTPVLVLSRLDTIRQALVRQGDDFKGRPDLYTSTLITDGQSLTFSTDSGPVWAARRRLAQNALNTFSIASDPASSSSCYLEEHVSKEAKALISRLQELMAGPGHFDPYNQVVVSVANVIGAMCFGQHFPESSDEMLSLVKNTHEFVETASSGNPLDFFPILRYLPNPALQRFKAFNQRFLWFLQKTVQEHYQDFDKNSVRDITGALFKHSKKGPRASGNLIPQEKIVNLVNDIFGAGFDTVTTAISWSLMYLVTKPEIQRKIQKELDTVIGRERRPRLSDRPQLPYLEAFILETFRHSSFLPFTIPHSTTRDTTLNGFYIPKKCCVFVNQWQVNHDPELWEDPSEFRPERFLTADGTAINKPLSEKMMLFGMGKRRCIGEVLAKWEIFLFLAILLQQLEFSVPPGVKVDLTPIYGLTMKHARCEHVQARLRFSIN
# Description: as §1
# [6] = Safety and tolerability in the two clinical studies; format: in vivo, human; settings: healthy participants; tepotinib 500 mg once daily, both studies
# Description: Safety and tolerability were also assessed throughout each study.
# [7] = molecular target: T5, CYP2C19 (Homo sapiens, UniProt P33261); test: CYP2C19 inhibition in pooled human liver microsomes; format: in vitro ADME; settings: for inhibition at 49.5 µM: both sexes, human, pooled human liver microsomes, probe S-mephenytoin (4-hydroxylation)
# T5 construct: pooled mixed-gender human liver microsomes; from tissue; host or cells: pooled mixed-gender human liver microsomes
# Description: as §1
# [8] = 30-min preincubation, read-out: Time-dependent inhibition IC50
# [9] = 30-min preincubation, read-out: Time-dependent inhibition, maximum inhibition at 49.5 µM
# [10] = zero-minute preincubation, read-out: Direct inhibition, maximum inhibition at 49.5 µM
# [11] = human liver microsomes, zero-minute preincubation, read-out: Direct inhibition IC50
# T3 sequence (P11712 whole entry): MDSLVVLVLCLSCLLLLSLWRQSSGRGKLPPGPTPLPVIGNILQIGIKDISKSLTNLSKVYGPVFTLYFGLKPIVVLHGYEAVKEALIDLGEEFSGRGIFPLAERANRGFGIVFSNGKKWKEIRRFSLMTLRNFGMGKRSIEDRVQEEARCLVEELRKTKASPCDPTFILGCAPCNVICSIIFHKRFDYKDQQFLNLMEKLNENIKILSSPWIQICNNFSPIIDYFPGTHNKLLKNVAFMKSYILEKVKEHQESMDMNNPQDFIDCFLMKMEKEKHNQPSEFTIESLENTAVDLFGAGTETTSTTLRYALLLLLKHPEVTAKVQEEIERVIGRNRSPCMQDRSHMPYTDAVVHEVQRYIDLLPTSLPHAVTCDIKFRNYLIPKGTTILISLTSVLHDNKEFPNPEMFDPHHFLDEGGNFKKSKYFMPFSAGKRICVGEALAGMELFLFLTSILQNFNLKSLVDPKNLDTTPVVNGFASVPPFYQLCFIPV
# T5 sequence (P33261 whole entry): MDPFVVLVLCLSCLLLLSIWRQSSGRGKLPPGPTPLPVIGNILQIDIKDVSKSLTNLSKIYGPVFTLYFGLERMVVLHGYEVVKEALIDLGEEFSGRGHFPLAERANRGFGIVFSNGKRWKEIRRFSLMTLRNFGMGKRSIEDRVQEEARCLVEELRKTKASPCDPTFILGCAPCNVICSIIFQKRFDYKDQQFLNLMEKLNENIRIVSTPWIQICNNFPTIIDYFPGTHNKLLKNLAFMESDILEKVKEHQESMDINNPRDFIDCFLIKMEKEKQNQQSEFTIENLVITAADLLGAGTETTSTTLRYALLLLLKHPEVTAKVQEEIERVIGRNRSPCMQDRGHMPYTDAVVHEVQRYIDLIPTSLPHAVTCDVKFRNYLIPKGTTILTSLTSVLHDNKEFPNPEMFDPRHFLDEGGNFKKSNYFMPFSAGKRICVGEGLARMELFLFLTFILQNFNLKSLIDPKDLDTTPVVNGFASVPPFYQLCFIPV
compound,measurement,setting,value
CN1CCC(COc2cnc(-c3cccc(Cn4nc(-c5cccc(C#N)c5)ccc4=O)c3)nc2)CC1 [tepotinib],Potential for time-dependent inhibition,[1],Little or No
same,IC50,[1]; [8],44 µM
same,inhibition at 49.5 µM,[1]; [9],52%
same,inhibition at 49.5 µM,[1]; [10],34%
same,IC50,[1]; [11],> 49.5 µM
same,Induction of CYP3A4/5 activity (in words),[2]; in vitro,did not induce
same,Induction of CYP3A4/5 activity,"[2]; primary human hepatocyte cultures, enzyme activity quantification (testosterone 6β-hydroxylation)",less than 40 % of positive control
same,Potential for time-dependent inhibition,[3],Little or No
same,IC50,[3]; [8],39 µM
same,inhibition at 49.5 µM,[3]; [9],52%
same,inhibition at 49.5 µM,[3]; [10],51%
same,IC50,[3]; [11],> 49.5 µM
same,Potential for time-dependent inhibition,[4]; Diclofenac 4-hydroxylation,Little or No
same,IC50,"[4]; Diclofenac 4-hydroxylation, 30-min preincubation, read-out: Time-dependent inhibition IC50",23 µM
same,inhibition at 49.5 µM,"[4]; Diclofenac 4-hydroxylation, 30-min preincubation, read-out: Time-dependent inhibition, maximum inhibition at 49.5 µM",52%
same,inhibition at 49.5 µM,"[4]; Diclofenac 4-hydroxylation, zero-minute preincubation, read-out: Direct inhibition, maximum inhibition at 49.5 µM",58%
same,IC50,"[4]; human liver microsomes, Diclofenac 4-hydroxylation, zero-minute preincubation, read-out: Direct inhibition IC50",27 µM
same,Ki,"[4]; human liver microsomes, direct inhibition, read-out: Ki, CYP2C9-catalyzed probe substrate reaction",≥ 11 µM
same,IC50,[5],> 49.5 µM
same,Potential for time-dependent inhibition,[5]; Phenacetin O-dealkylation,Little or No
same,inhibition at 49.5 µM,"[5]; Phenacetin O-dealkylation, 30-min preincubation, read-out: Time-dependent inhibition, maximum inhibition at 49.5 µM",26%
same,inhibition at 49.5 µM,"[5]; Phenacetin O-dealkylation, zero-minute preincubation, read-out: Direct inhibition, maximum inhibition at 49.5 µM",11%
same,IC50,"[5]; read-out: Time-dependent inhibition IC50, Phenacetin O-dealkylation, 30-min preincubation",> 49.5 µM
same,Safety and tolerability (in words),[6],safe and well tolerated
same,Potential for time-dependent inhibition,[7]; S-Mephenytoin 4-hydroxylation,Little or No
same,IC50,"[7]; S-Mephenytoin 4-hydroxylation, 30-min preincubation, read-out: Time-dependent inhibition IC50",29 µM
same,inhibition at 49.5 µM,"[7]; S-Mephenytoin 4-hydroxylation, 30-min preincubation, read-out: Time-dependent inhibition, maximum inhibition at 49.5 µM",65%
same,inhibition at 49.5 µM,"[7]; S-Mephenytoin 4-hydroxylation, zero-minute preincubation, read-out: Direct inhibition, maximum inhibition at 49.5 µM",64%
same,IC50,"[7]; human liver microsomes, S-Mephenytoin 4-hydroxylation, zero-minute preincubation, read-out: Direct inhibition IC50",30 µM
same,Ki,"[7]; human liver microsomes, read-out: Ki, CYP2C19-catalyzed probe substrate reaction",≥ 11 µM
